Experimental data taken from patent publication EP2471802A1, “Phosphoramidates of monosaccharides” (Bioiberica, S.A., priority 2010, dated 2012).

Assays:
[1] = tested on: bovine cartilage explants; test: GAG release inhibition (IL-1 induced) in bovine cartilage explants, Blyscan colorimetric assay; format: cell-based; conditions: for reduction in the GAG release induced by IL-1 (result in words): bovine explants, compared to culture stimulated with IL-1 in the presence of 0.25% DMSO
Procedure: (§1) Glycosaminoglycan (GAG) release is a test used to evaluate the effects of the compounds of the present invention on proteoglycan degradation induced by IL-1.
(§2) Full-depth articular cartilage were dissected from the metacarpophalangeal joints of calves of approximately 6 months of age or human cartilage from joint replacement surgery (approximately 4 mm diameter punches for bovine cartilage and 2 mm for human cartilage). After an equilibration period of 24 hours, explants were cultured for one day in 200 µl DMEM + hydrolyzed lactalbumin + 50 µg/ml vitamin C + penicillin/streptomycin + ITS (Insulin-Transferrin-Selenium) in the presence or absence of the compounds. After one day, GAG release was induced by addition of 10 ng of IL-1. Six days after IL-1 induction, the cartilage and culture medium were collected for analysis. During this six day period the culture medium was replaced every two days.
(§3) GAG release was analyzed using the Blyscan® colorimetric assay (Biocolor, Belfast, UK). To measure GAG content of the cartilage explants, the tissue was digested with papain. The culture medium of day 4, 6 and 8 was pooled before GAG analysis. GAG release was expressed as percentage of the total GAG content of the explants (i.e. GAG medium + GAG in papain digest).
(§4) A control condition with 0.25% DMSO was included because the test compounds were dissolved in DMSO. A condition with glucosamine hydrochloride was added for comparison.
(§5) Each culture condition was performed with cartilage of five different paws/patients to account for biological variation.
(§6) ANOVA followed by LSD post-hoc tests were used for determining differences between groups (p≤ 0.05 was considered significant).
(§7) Results in Tables 3 and 4 were expressed as a percentage reduction in GAG release compared to the control condition with DMSO stimulated with IL-1.

human cartilage explants = test: GAG release inhibition (IL-1 induced) in human cartilage explants, Blyscan colorimetric assay; format: cell-based; conditions: for reduction of GAG release (result in words): doses 50 µM, 100 µM and 250 µM
Procedure: as §1, §2, §3, §4, §5, §6, §7

[2] = Bos taurus, bovine cartilage explants, percentage reduction in GAG release vs 0.25% DMSO + IL-1 control, * p≤ 0.05, (Inactive) = not statistically significant

Row | Compound | inhibition at 100 µM [1, 2] [%] | reduction in the GAG release induced by IL-1 (result in words) [1] | further results
1 | C=CCCC(=O)N[C@H]1C(O)O[C@H](CO)[C@@H](O)[C@@H]1OP(=O)(N[C@H](C(=O)OCc1ccccc1)C(C)C)Oc1ccc(OC)cc1 (stereo partly drawn) [Compound 61, 2-deoxy-2-(pent-4-enoylamino)-3-O-[4-methoxyphenyl(benzyloxy-L-valinyl)]phosphoramidate-D-glucopyranose] | 47 | statistically significant reduction of the GAG release | 
2 | CC(=O)N[C@H]1C(O)O[C@H](CO)[C@@H](O)[C@@H]1OP(=O)(Oc1ccccc1)N1CCC[C@H]1C(=O)OCc1ccccc1 (stereo partly drawn) [Compound 74, 2-acetamido-2-deoxy-3-O-[phenyl(benzyloxy-L-prolinyl)]phosphoramidate-D-glucopyranose] |  | statistically significant reduction of the GAG release | 
3 | COc1ccc(OP(=O)(NC(C(=O)OCc2ccccc2)C(C)C)OC[C@H]2OC(O)[C@H](N)[C@@H](O)[C@@H]2O)cc1 (some centres unmarked) [Reference compound 5, reference compound] | 4 |  | 
4 | CCOC(=O)[C@@H]1CCCN1P(=O)(Oc1ccc(OC)cc1)O[C@H]1[C@H](O)[C@@H](CO)OC(O)[C@@H]1NC(C)=O (some centres unmarked) [Compound 31] |  | statistically significant reduction of the GAG release | 
5 | CCOC(=O)[C@@H]1CCCN1P(=O)(Oc1ccc(OC)cc1)O[C@H]1[C@H](O)[C@@H](NC(C)=O)C(O)O[C@@H]1CO (stereo partly drawn) [Compound 32, 2-acetamido-2-deoxy-4-O-[4-methoxyphenyl(ethoxy-L-prolinyl)]phosphoramidate-D-glucopyranose] |  | statistically significant reduction of the GAG release | 
6 | COc1ccc(OP(=O)(O[C@H]2[C@H](O)[C@@H](CO)OC(O)[C@@H]2NC(C)=O)N2CCC[C@H]2C(=O)OCc2ccccc2)cc1 (stereo partly drawn) [Compound 1, 2-acetamido-2-deoxy-3-O-[4-methoxyphenyl(benzyloxy-L-prolinyl)]phosphoramidate-D-glucopyranose] |  | statistically significant reduction of the GAG release | reduction of GAG release (result in words) (human cartilage explants): statistically significant activity
7 | COc1ccc(OP(=O)(N[C@H](C(=O)OCc2ccccc2)C(C)C)O[C@H]2[C@H](O)[C@@H](CO)OC(O)[C@@H]2N)cc1 (stereo partly drawn) [Compound 63, 2-amino-2-deoxy-3-O-[4-methoxyphenyl(benzyloxy-L-valinyl)]phosphoramidate-D-glucopyranose] | 31 | statistically significant reduction of the GAG release | 
8 | COc1ccc(OP(=O)(NC(C(=O)OCc2ccccc2)C(C)C)OC[C@H]2OC(O)[C@H](NC(C)=O)[C@@H](O)[C@@H]2O)cc1 (some centres unmarked) [Reference compound 4, reference compound] | 3 |  | 
9 | CCCCCOC(=O)[C@@H]1CCCN1P(=O)(Oc1ccc(OC)cc1)O[C@H]1[C@H](O)[C@@H](NC(C)=O)C(O)O[C@@H]1CO (stereo partly drawn) [Compound 69, 2-acetamido-2-deoxy-4-0-[4-methoxyphenyl(n-pentoxy-L-prolinyl)]phosphoramidate-D-glucopyranose] |  | statistically significant reduction of the GAG release | 
10 | COc1ccc(OP(=O)(N[C@H](C(=O)OCc2ccccc2)C(C)C)O[C@H]2[C@H](O)[C@@H](CO)OC(O)[C@@H]2NC(C)=O)cc1 (stereo partly drawn) [Compound 16, 2-acetamido-2-deoxy-3-O-[4-methoxyphenyl(benzyloxy-L-valinyl)]phosphoramidate-D-glucopyranose] | 27 | statistically significant reduction of the GAG release | 
11 | 2-deoxy-2-(pent-4-enoylamino)-3-O-[4-methoxyphenyl(ethoxy-L-prolinyl)]phosphoramidate-D-glucopyranose [Compound 87] |  | statistically significant reduction of the GAG release | GAG release inhibition ([1]; 250 µM, bovine cartilage explants, percentage reduction in GAG release vs 0.25% DMSO + IL-1 control, * p≤ 0.05, (Inactive) = not statistically significant): 33.3%*
12 | Cl.N[C@H]1C(O)O[C@H](CO)[C@@H](O)[C@@H]1O (some centres unmarked) [Glucosamine Hydrochloride] | 0 | did not caused any statistically significant reduction | inhibition at 50 µM (human cartilage explants; 50 µM, percentage reduction in GAG release vs 0.25% DMSO + IL-1 control, * p≤ 0.05, (Inactive) = not statistically significant): 7.8%; inhibition at 100 µM (human cartilage explants; 100 µM, percentage reduction in GAG release vs 0.25% DMSO + IL-1 control, * p≤ 0.05, (Inactive) = not statistically significant): 11.9%; inhibition at 250 µM (human cartilage explants; 250 µM, percentage reduction in GAG release vs 0.25% DMSO + IL-1 control, * p≤ 0.05, (Inactive) = not statistically significant): 11.9%; reduction of GAG release (result in words) (human cartilage explants): inactive; inhibition at 250 µM ([1]; Bos taurus, 250 µM, bovine cartilage explants, percentage reduction in GAG release vs 0.25% DMSO + IL-1 control, * p≤ 0.05, (Inactive) = not statistically significant): 0%
13 | CCOC(=O)[C@@H]1CCCN1P(=O)(Oc1cccc2ccccc12)O[C@H]1[C@H](O)[C@@H](CO)OC(O)[C@@H]1NC(C)=O (stereo partly drawn) [Compound 80, 2-acetamido-2-deoxy-3-O-[1-naphtyl(ethoxy-L-prolinyl)]phosphoramidate-D-glucopyranose] |  | statistically significant reduction of the GAG release | 
14 | CCC(C)OC(=O)[C@@H](NP(=O)(Oc1ccc(OC)cc1)O[C@H]1[C@H](O)[C@@H](CO)OC(O)[C@@H]1NC(C)=O)C(C)C (stereo partly drawn) [Compound 58, 2-acetamido-2-deoxy-3-O-[4-methoxyphenyl(2-butoxy-L-valinyl)]phosphoramidate-D-glucopyranose] | 41 | statistically significant reduction of the GAG release | 
